From patent US20210253598A1, “ARYL ANNULATED MACROCYCLIC INDOLE DERIVATIVES” (priority 2017, published 2021)
Where a name gives a salt, the structure may show the parent alone. Read-outs that look alike come from different tables or passages of the source.

What was measured:
SUDHL5 [1] = experiment: Induction of caspase-3/7 activity in SUDHL5 cells (Assay 4); assay type: cell-based; conditions: SUDHL5, 3 hours treatment, Caspase-Glo 3/7, median, read-out: Caspase SUDHL5 [M] (median)
Protocol: (§1) Induction of Caspase-3/7 Activity Upon Treatment of Cells with Selected Compounds
(§2) The BH3-domain of MCL-1 sequesters pro-apoptotic proteins, thereby inhibiting apoptosis. In contrast, MCL-1 inhibitors are expected to antagonize this effect leading to an increase in apoptosis, which can be determined by measuring the activity of caspase-3/7.
(§3) The activity of caspase-3/7 was determined in DLBCL (Diffuse large B-cell lymphoma) cell lines (SUDHL5 and SUDHL10) upon treatment with different compounds, using the Caspase-Glo® 3/7 reagent from Promega (G8092).
(§4) As a control, medium without cells was also added to the plate. Cells were incubated in a humidified incubator at 37° C. overnight.
(§5) Rim wells were excluded. The cells were incubated for 3 hours in a humidified incubator at 37° C. After this incubation, 30 μl of Caspase-Glo® 3/7 reagent (Promega G8092) was added to each well using the Multidrop Combi Reagent Dispenser, followed by 1 hour incubation at 37° C. Finally, luminescence was read at 0.1 ms, with a gain of 3000 using the PHERAstar FS microplate reader (BMG Labtech).
(§6) For the evaluation of the results, the background measured with “medium-only” was subtracted from all other values. Then, the values were normalized to DMSO-only treated cells (every value was divided by the mean of the DMSO control).

SUDHL10 [2] = experiment: Induction of cytotoxicity in SUDHL10 cells, CellTiter-Glo (Assay 6); assay type: cell-based
Protocol: (§7) Induction of Cytotoxicity Upon Treatment of Cells with Selected Compounds
(§8) In principle, compounds that induce apoptosis will concomitantly induce cell cytotoxicity. Therefore, cytotoxicity assays were run in parallel in SUDHL5 and SUDHL10 cells.
(§9) As a control, medium without cells was also added to the plate. Cells were incubated in a humidified incubator at 37° C. overnight. […] Rim wells were excluded. The cells were incubated for 5 hours in a humidified incubator at 37° C. After this incubation, 30 μl of CellTiter-Glo® Luminescent Cell Viability reagent (Promega, G7573) was added to each well using the Multidrop Combi Reagent Dispenser, followed by 15 minutes incubation on a shaker at room temperature. Finally, luminescence was read at 0.1 ms, with a gain of 3000 using the PHERAstar FS microplate reader (BMG Labtech).

SUDHL5 [3] = experiment: Induction of cytotoxicity in SUDHL5 cells, CellTiter-Glo (Assay 6); assay type: cell-based
Protocol: as §7, §8, §9

SUDHL10 [4] = experiment: Induction of caspase-3/7 activity in SUDHL10 cells (Assay 4); assay type: cell-based; conditions: SUDHL10, 3 hours treatment, Caspase-Glo 3/7, median, read-out: Caspase SUDHL10 [M] (median)
Protocol: as §1, §2, §3, §4, §5, §6

MCL-1 = MCL-1 (Homo sapiens, UniProt Q07820, K194A/K197A/R201A); experiment: Protein-protein interaction assay MCL-1/Noxa BH3 peptide, TR-FRET (MCL-1 assay, Assay 1); assay type: binding; conditions: MCL-1 Assay [M] (median), MBP-MCL-1 / Noxa BH3 peptide
Protocol: The dose-dependent inhibition by the compounds described in this invention of the interaction between MCL-1 and the BH3 domain of Noxa (both human) was determined using a steady state binding competition assay with time-resolved fluorescence energy transfer (TR-FRET) readout. For that purpose MCL-1 (amino acids 173-321, N-terminal fused to Maltose Binding Protein (MBP), SEQ ID 1) and a synthetic Noxa BH3-derived peptide of sequence Biotin-PEG2-PEG2-PAELEVE-Nva-[…]-amide (SEQ ID 2) served as protein receptor and tracer ligand respectively. The MBP-MCL-1 was purchased from Beryllium (Bedford, Mass., USA). The expression and purification of this protein construct has been described elsewhere (DOI:10.1371/journal.pone.0125010). The Noxa BH3-derived peptide can be obtained from e.g. Biosyntan (Berlin, Germany).
For that, 100-fold concentrated DMSO solutions were prepared by serial dilutions (1:3.4) of a 2 mM stock solution in a clear, 384-well microtiter plate (Greiner Bio-One, Frickenhausen, Germany). From there, 50 nl were transferred in a dark test plate (Greiner Bio-One, Frickenhausen, Germany). The assay was initiated by addition of 2 μl of a 2,5-fold concentrated MBP-MCL-1 solution (usually for a 1 nM end concentration in 5 μl reaction volume) in aqueous assay buffer [50 mM Tris/HCl pH 7, 100 mM sodium chloride (NaCl), 50 mM potassium fluoride (KF), 0.005% Tween-20, 2 mM DTT, 0.1% bovine gamma globulin (BGG)] to the compounds in the assay plate. This was followed by a 10-minute incubation step at 22° C. for pre-equilibration of the putative complex between MBP-MCL-1 and the compounds.
The mixture was incubated in the dark for one hour at 22° C. and then overnight at 4° C. The formation of MCL-1/Noxa complexes was determined by measuring the resonance energy transfer of the anti-MBP-Eu-cryptate antibody to the streptavidin-XL665 present in the reaction.
The resulting data (ratio) were normalized, taking 0% inhibition as the mean value of control measurements (usually 32 data points) where all reagents were included. In this case 50 nl DMSO were used instead of compounds. […] IC50 values were determined by regression analysis based on a 4 parameter equation (minimum, maximum, IC50, Hill; Y=Max+(Min−Max)/(1+(X/IC50)^Hill) using the Screener Software (Genedata).

[5] = SUDHL10, 5 hours incubation, median, read-out: Cytotox SUDHL10 [M] (median)
[6] = SUDHL5, 5 hours incubation, median, read-out: Cytotox SUDHL5 [M] (median)
[7] = Homo sapiens, SU-DHL10, 5 h, SUDHL10, 5 hours incubation, median, read-out: Cytotox SUDHL10 [M] (median)

Chain of MCL-1 (Q07820 173-321 K194A/K197A/R201A, looked up): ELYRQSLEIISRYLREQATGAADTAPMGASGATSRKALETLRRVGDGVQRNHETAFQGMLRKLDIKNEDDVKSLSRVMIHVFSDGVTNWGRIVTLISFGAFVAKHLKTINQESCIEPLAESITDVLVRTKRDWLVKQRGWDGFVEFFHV

SMILES	EC50 (SUDHL5 [1])	IC50 (SUDHL10 [2]; [5])	IC50 (SUDHL5 [3]; [6])	EC50 (SUDHL10 [4])	IC50 (MCL-1)	EC50 (SUDHL5 [1]; Homo sapiens, SU-DHL-5, 3 h)	IC50 (SUDHL10 [2]; [7])	EC50 (SUDHL10 [4]; Homo sapiens, SU-DHL10, 3 h)	IC50 (SUDHL10 [2]; read-out: Cytotox SUDHL10 [M] (median), SUDHL10, 5 hours incubation)	IC50 (SUDHL5 [3]; read-out: Cytotox SUDHL5 [M] (median), SUDHL5, 5 hours incubation)
Cc1c2c(nn1C)CN(S(=O)(=O)c1ccc(N3CCOCC3)nc1)Cc1ccccc1Cn1c(C(=O)O)c(CCCOc3cccc4ccccc34)c3cccc-2c31 (single isomer, unassigned; enantiomer 1) [Example 18, (+)-4,5-Dimethyl-8-{[6-(morpholin-4-yl)pyridin-3-yl]sulfonyl}-17-[3-(naphthalen-1-yloxy)propyl]-7,8,9,14-tetrahydro-5H-indolo[1,7-bc]pyrazolo[4,3-e][2,8]benzodiazacycloundecine-16-carboxylic Acid (Enantiomer 1)]	9.2e-07 M	3.8e-06 M	1.4e-06 M	5.2e-06 M	2.9e-08 M	–	–	–	–	–
Cc1c2c(nn1C)CN(C(=O)CC1CCOCC1)Cc1ccccc1Cn1c(C(=O)O)c(CCCOc3cccc4ccccc34)c3cccc-2c31 (single isomer, unassigned; enantiomer 1) [Example 22, (−)-4,5-Dimethyl-17-[3-(naphthalen-1-yloxy)propyl]-8-(tetrahydro-2H-pyran-4-ylacetyl)-7,8,9,14-tetrahydro-5H-indolo[1,7-bc]pyrazolo[4,3-e][2,8]benzodiazacycloundecine-16-carboxylic Acid (Enantiomer 1)]	1.4e-05 M	> 3.3e-05 M	1.7e-05 M	> 3.3e-05 M	6.5e-07 M	–	–	–	–	–
Cc1c2c(nn1C)CN(C(=O)NC1CCOCC1)Cc1ccccc1Cn1c(C(=O)O)c(CCCOc3cccc4ccccc34)c3cccc-2c31 (single isomer, unassigned; enantiomer 1) [Example 25, (+)-4,5-Dimethyl-17-[3-(naphthalen-1-yloxy)propyl]-8-(tetrahydro-2H-pyran-4-ylcarbamoyl)-7,8,9,14-tetrahydro-5H-indolo[1,7-bc]pyrazolo[4,3-e][2,8]benzodiazacycloundecine-16-carboxylic Acid (Enantiomer 1)]	–	–	> 3.3e-05 M	–	2.6e-07 M	> 3.3e-05 M	> 3.3e-05 M	> 3.3e-05 M	–	–
Cc1c2c(nn1C)CN(C(=O)NCC1CCOCC1)Cc1ccccc1Cn1c(C(=O)O)c(CCCOc3cccc4ccccc34)c3cccc-2c31 (single isomer, unassigned; enantiomer 1) [Example 28, (+)-4,5-Dimethyl-17-[3-(naphthalen-1-yloxy)propyl]-8-[(tetrahydro-2H-pyran-4-ylmethyl)carbamoyl]-7,8,9,14-tetrahydro-5H-indolo[1,7-bc]pyrazolo[4,3-e][2,8]benzodiazacycloundecine-16-carboxylic Acid (Enantiomer 1)]	> 3.3e-05 M	–	> 3.3e-05 M	–	2.8e-07 M	–	> 3.3e-05 M	> 3.3e-05 M	–	–
Cc1c2c(nn1C)CNCc1ccccc1Cn1c(C(=O)O)c(CCCOc3cccc4ccccc34)c3cccc-2c31 (single isomer, unassigned; enantiomer 2) [Example 13, 4,5-Dimethyl-17-[3-(naphthalen-1-yloxy)propyl]-7,8,9,14-tetrahydro-5H-indolo[1,7-bc]pyrazolo-[4,3-e][2,8]benzodiazacycloundecine-16-carboxylic acid-Trifluoroacetic Acid Salt (Enantiomer 2)]	1.4e-05 M	–	–	> 3.3e-05 M	1.7e-07 M	–	–	–	2.5e-05 M	1.7e-05 M
Cc1c2c(nn1C)CN(S(=O)(=O)c1ccc(N3CCOCC3)nc1)Cc1ccccc1Cn1c(C(=O)O)c(CCCOc3cccc4ccccc34)c3cccc-2c31 (single isomer, unassigned; enantiomer 2) [Example 19, (−)-4,5-Dimethyl-8-{[6-(morpholin-4-yl)pyridin-3-yl]sulfonyl}-17-[3-(naphthalen-1-yloxy)propyl]-7,8,9,14-tetrahydro-5H-indolo[1,7-bc]pyrazolo[4,3-e][2,8]benzodiazacycloundecine-16-carboxylic Acid (Enantiomer 2)]	1.7e-05 M	> 3.3e-05 M	2.3e-05 M	> 3.3e-05 M	9.4e-07 M	–	–	–	–	–
Cc1c2c(nn1C)CN(C(=O)CC1CCOCC1)Cc1ccccc1Cn1c(C(=O)O)c(CCCOc3cccc4ccccc34)c3cccc-2c31 (single isomer, unassigned; enantiomer 2) [Example 23, (+)-4,5-Dimethyl-17-[3-(naphthalen-1-yloxy)propyl]-8-(tetrahydro-2H-pyran-4-ylacetyl)-7,8,9,14-tetrahydro-5H-indolo[1,7-bc]pyrazolo[4,3-e][2,8]benzodiazacycloundecine-16-carboxylic Acid (Enantiomer 2)]	4.2e-06 M	1.1e-05 M	4.4e-06 M	1.2e-05 M	3.9e-08 M	–	–	–	–	–
Cc1c2c(nn1C)CN(C(=O)NC1CCOCC1)Cc1ccccc1Cn1c(C(=O)O)c(CCCOc3cccc4ccccc34)c3cccc-2c31 (single isomer, unassigned; enantiomer 2) [Example 26, (−)-4,5-Dimethyl-17-[3-(naphthalen-1-yloxy)propyl]-8-(tetrahydro-2H-pyran-4-ylcarbamoyl)-7,8,9,14-tetrahydro-5H-indolo[1,7-bc]pyrazolo[4,3-e][2,8]benzodiazacycloundecine-16-carboxylic Acid (Enantiomer 2)]	1.8e-05 M	> 3.3e-05 M	1.6e-05 M	> 3.3e-05 M	3.8e-08 M	–	–	–	–	–
Cc1c2c(nn1C)CN(C(=O)NCC1CCOCC1)Cc1ccccc1Cn1c(C(=O)O)c(CCCOc3cccc4ccccc34)c3cccc-2c31 (single isomer, unassigned; enantiomer 2) [Example 29, (−)-4,5-Dimethyl-17-[3-(naphthalen-1-yloxy)propyl]-8-[(tetrahydro-2H-pyran-4-ylmethyl)carbamoyl]-7,8,9,14-tetrahydro-5H-indolo[1,7-bc]pyrazolo[4,3-e][2,8]benzodiazacycloundecine-16-carboxylic Acid (Enantiomer 2)]	1e-05 M	2.3e-05 M	1.4e-05 M	2.3e-05 M	3e-08 M	–	–	–	–	–
